Results reported in the NIST ThermoML archive (doi:10.1016/j.tca.2012.05.036).
± gives the expanded uncertainty stated by the source.

Experiments:
[1] = refractive index (Na D-line) (dimensionless); xn = mol fraction of the nth substance listed; conditions: 101 kPa, Liquid, Standard Abbe refractometry
[2] = relative permittivity at zero frequency (dimensionless); xn = mol fraction of the nth substance listed; conditions: 101 kPa, Liquid, Parallel plate capacitor
[3] = relative permittivity at zero frequency (dimensionless); conditions: 101.33 kPa, Liquid, Parallel plate capacitor
[4] = refractive index (Na D-line) (dimensionless); conditions: 101.33 kPa, Liquid, Standard Abbe refractometry
[5] = 101.33 kPa, Liquid, Vibrating tube method

CCCCCO [pentan-1-ol] + CCCCCCCC
Conditions | refractive index, 293.15 K | refractive index, 298.15 K | refractive index, 303.15 K | relative permittivity at zero frequency, 288.15 K | relative permittivity at zero frequency, 293.15 K | relative permittivity at zero frequency, 298.15 K | relative permittivity at zero frequency, 303.15 K | relative permittivity at zero frequency, 308.15 K
[1], x1 = 0.1008 | 1.3981 ± 0.0005 | 1.3965 ± 0.0005 | 1.3937 ± 0.0005 | – | – | – | – | –
[1], x1 = 0.2034 | 1.3988 ± 0.0005 | 1.3973 ± 0.0005 | 1.3946 ± 0.0005 | – | – | – | – | –
[1], x1 = 0.3004 | 1.3997 ± 0.0005 | 1.3982 ± 0.0005 | 1.3955 ± 0.0005 | – | – | – | – | –
[1], x1 = 0.3808 | 1.4005 ± 0.0005 | 1.3991 ± 0.0005 | 1.3964 ± 0.0005 | – | – | – | – | –
[1], x1 = 0.4885 | 1.4019 ± 0.0005 | 1.4004 ± 0.0005 | 1.3979 ± 0.0005 | – | – | – | – | –
[1], x1 = 0.593 | 1.4033 ± 0.0005 | 1.4019 ± 0.0005 | 1.3993 ± 0.0005 | – | – | – | – | –
[1], x1 = 0.6992 | 1.4047 ± 0.0005 | 1.4034 ± 0.0005 | 1.4008 ± 0.0005 | – | – | – | – | –
[1], x1 = 0.7922 | 1.4063 ± 0.0005 | 1.405 ± 0.0005 | 1.4026 ± 0.0005 | – | – | – | – | –
[1], x1 = 0.8967 | 1.4082 ± 0.0005 | 1.407 ± 0.0005 | 1.4046 ± 0.0005 | – | – | – | – | –
[2], x1 = 0.1008 | – | – | – | 2.104 ± 0.13 | 2.1 ± 0.13 | 2.096 ± 0.13 | 2.092 ± 0.13 | 2.088 ± 0.12
[2], x1 = 0.2034 | – | – | – | 2.331 ± 0.14 | 2.321 ± 0.14 | 2.312 ± 0.14 | 2.304 ± 0.14 | 2.297 ± 0.14
[2], x1 = 0.3004 | – | – | – | 2.766 ± 0.17 | 2.731 ± 0.16 | 2.699 ± 0.16 | 2.669 ± 0.16 | 2.643 ± 0.16
[2], x1 = 0.3808 | – | – | – | 3.405 ± 0.2 | 3.32 ± 0.2 | 3.243 ± 0.2 | 3.173 ± 0.19 | 3.111 ± 0.19
[2], x1 = 0.4885 | – | – | – | 4.798 ± 0.29 | 4.601 ± 0.28 | 4.421 ± 0.27 | 4.257 ± 0.26 | 4.109 ± 0.25
[2], x1 = 0.593 | – | – | – | 6.675 ± 0.4 | 6.358 ± 0.38 | 6.053 ± 0.36 | 5.774 ± 0.35 | 5.516 ± 0.33
[2], x1 = 0.6992 | – | – | – | 8.743 ± 0.53 | 8.332 ± 0.5 | 7.936 ± 0.48 | 7.559 ± 0.45 | 7.204 ± 0.43
[2], x1 = 0.7922 | – | – | – | 11.143 ± 0.67 | 10.654 ± 0.64 | 10.175 ± 0.61 | 9.712 ± 0.58 | 9.267 ± 0.56
[2], x1 = 0.8967 | – | – | – | 13.734 ± 0.82 | 13.179 ± 0.79 | 12.634 ± 0.76 | 12.103 ± 0.73 | 11.585 ± 0.69

CCCCCO [pentan-1-ol]
Conditions | mass density, [5] [kg/m3] | refractive index, [4] | relative permittivity at zero frequency, [3]
288.15 K | 818.49 ± 0.31 | – | 16.334 ± 0.98
293.15 K | 814.82 ± 0.31 | 1.41001 ± 0.00053 | 15.736 ± 0.94
298.15 K | 811.19 ± 0.31 | 1.4084 ± 0.0005 | 15.144 ± 0.91
303.15 K | 807.5 ± 0.31 | 1.4065 ± 0.0005 | 14.565 ± 0.87
308.15 K | 803.86 ± 0.31 | – | 13.998 ± 0.84

CCCCCCCC [octane]
Conditions | mass density, [5] [kg/m3] | refractive index, [4] | relative permittivity at zero frequency, [3]
288.15 K | 706.81 ± 0.32 | – | 1.975 ± 0.12
293.15 K | 702.77 ± 0.32 | 1.3991 ± 0.0005 | 1.968 ± 0.12
298.15 K | 698.73 ± 0.32 | 1.3967 ± 0.0005 | 1.961 ± 0.12
303.15 K | 694.7 ± 0.32 | 1.3945 ± 0.0005 | 1.954 ± 0.12
308.15 K | 690.67 ± 0.32 | – | 1.947 ± 0.12
